# US20250152585A1, “PHARMACEUTICAL COMPOUND” (Duke Street Bio Limited, priority 2022, published 2025)
# Where two headings read alike, the source gives them in different places.
# What was measured:
# [1] = molecular target: T1, full length N-terminally FLAG-tagged PARP1 (Homo sapiens, UniProt P09874); assay: PARP1 biochemical DELFIA assay (auto-PARylation); set-up: recombinant full length human N-terminally FLAG-tagged PARP1
# [2] = molecular target: T2, N-terminally FLAG-tagged PARP2 (amino acids 1-583) (Homo sapiens, UniProt Q9UGN5); assay: PARP2 probe displacement HTRF assay; format: binding; details: binned Kd
# T2 construct: N-terminally FLAG-tagged PARP2 (amino acids 1-583)
# Protocol: Data analysis was performed identical as for PARP1.
# [3] = molecular target: T1, full length N-terminally FLAG-tagged PARP1; assay: PARP1 probe displacement HTRF assay; details: for Selectivity: PARP1 over PARP2, ratio Kd (PARP2)/Kd (PARP1); for Kd: binned Kd
# [4] = binned IC50, biochemical auto-PARylation assay
# [5] = read-out: PARP1 HTRF, probe displacement HTRF
# [6] = binned IC50, PARP1 biochemical DELFIA assay
# [7] = PARP1 HTRF, PARP1 probe displacement HTRF
# [8] = read-out: PARP1 HTRF, PARP1 probe displacement HTRF
# T2 sequence (Q9UGN5 whole entry, the tested form may be a part): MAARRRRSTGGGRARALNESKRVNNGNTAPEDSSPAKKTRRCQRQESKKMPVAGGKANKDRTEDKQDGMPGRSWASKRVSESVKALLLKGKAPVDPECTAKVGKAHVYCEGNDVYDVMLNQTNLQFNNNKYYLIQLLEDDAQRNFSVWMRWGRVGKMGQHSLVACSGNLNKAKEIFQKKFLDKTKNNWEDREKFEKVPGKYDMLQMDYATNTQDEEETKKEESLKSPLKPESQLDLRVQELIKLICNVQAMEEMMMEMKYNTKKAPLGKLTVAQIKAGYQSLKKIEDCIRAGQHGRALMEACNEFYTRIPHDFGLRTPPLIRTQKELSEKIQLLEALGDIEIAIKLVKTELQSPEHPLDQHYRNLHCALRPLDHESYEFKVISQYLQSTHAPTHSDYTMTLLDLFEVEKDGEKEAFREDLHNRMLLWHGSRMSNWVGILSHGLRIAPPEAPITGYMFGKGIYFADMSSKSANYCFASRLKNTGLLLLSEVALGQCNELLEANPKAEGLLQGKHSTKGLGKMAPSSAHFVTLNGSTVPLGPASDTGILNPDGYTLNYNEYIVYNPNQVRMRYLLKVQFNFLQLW
# T1 sequence (P09874 whole entry, the tested form may be a part): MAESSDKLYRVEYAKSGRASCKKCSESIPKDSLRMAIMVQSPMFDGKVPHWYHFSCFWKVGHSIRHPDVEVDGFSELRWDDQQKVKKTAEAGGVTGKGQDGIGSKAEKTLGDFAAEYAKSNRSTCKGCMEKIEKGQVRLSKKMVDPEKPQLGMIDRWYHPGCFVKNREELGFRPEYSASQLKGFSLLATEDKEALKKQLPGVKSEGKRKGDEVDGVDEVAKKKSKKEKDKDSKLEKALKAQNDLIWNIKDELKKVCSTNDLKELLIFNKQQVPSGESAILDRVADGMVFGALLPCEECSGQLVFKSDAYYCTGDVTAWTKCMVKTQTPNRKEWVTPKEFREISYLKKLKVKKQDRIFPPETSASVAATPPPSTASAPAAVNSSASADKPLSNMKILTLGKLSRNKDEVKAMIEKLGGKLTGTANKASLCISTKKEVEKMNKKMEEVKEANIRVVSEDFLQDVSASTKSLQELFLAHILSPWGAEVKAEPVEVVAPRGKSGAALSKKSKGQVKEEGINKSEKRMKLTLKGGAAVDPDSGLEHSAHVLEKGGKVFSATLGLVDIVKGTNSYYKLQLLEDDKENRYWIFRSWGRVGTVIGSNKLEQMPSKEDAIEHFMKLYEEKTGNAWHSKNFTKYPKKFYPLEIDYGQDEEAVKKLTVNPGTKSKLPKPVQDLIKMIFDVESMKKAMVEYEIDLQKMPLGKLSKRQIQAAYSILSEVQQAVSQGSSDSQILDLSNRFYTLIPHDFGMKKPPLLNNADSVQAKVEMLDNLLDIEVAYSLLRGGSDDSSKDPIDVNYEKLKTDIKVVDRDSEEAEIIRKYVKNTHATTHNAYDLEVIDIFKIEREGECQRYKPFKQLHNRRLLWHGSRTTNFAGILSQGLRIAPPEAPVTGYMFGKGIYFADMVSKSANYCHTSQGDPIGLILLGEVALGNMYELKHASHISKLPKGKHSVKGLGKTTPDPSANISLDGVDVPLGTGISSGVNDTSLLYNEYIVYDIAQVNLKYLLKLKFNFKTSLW
Compound,"IC50 [1, 4] [nM]",Kd ([2]; probe displacement HTRF) [nM],"Kd [3, 5] [nM]","IC50 [1, 6] [nM]",Kd ([2]; PARP2 probe displacement HTRF) [nM],"Kd [3, 7] [nM]","Kd [3, 8] [nM]",Selectivity ([3]; probe displacement HTRF),"Kd ([3]; PARP1 HTRF, probe displacement HTRF) [nM]"
O=C(NC1COC1)c1ccc(N2CCC(N3CCC(c4nc5ccccc5c(=O)[nH]4)C3)CC2)cn1 (racemic) [Compound 229rac],10 to 100,100 to 1000,< 10,–,–,–,–,+++ (+++ indicate a value of at least 100),–
"CCc1ccc(C2CCN(C3CCN(c4ccc(C(=O)NCC(F)(F)F)nc4F)CC3)C2)[nH]c1=O (single isomer, unassigned) [Compound 285b]",< 10,> 10000,< 10,–,–,–,–,+++ (+++ indicate a value of at least 100),–
"CNC(=O)c1ccc(N2CCC(N3CCC(c4cc5cccc(F)c5c(=O)[nH]4)C3)CC2)cn1 (single isomer, unassigned) [Compound 136a, 5-{4-[3-(8-fluoro-1-oxo-2H-isoquinolin-3-yl)pyrrolidin-1-yl]piperidin-1-yl}-N-methylpyridine-2-carboxamide]",–,–,–,< 10,100 to 1000,< 10,–,+++ (+++ indicate a value of at least 100),–
"CNC(=O)c1ccc(N2CCC(N3CCC(C)(c4nc5ccccc5c(=O)[nH]4)C3)CC2)cn1 (single isomer, unassigned) [Compound 67a]",–,–,–,100 to 1000,1000 to 10000,–,100 to 1000,+ (+ indicates a value of 10 to less than 50),–
CNC(=O)c1ccc(N2CCC(N3CCC(c4nc5ccc(Cl)cc5c(=O)[nH]4)C3)CC2)cn1 (racemic) [Compound 49rac],–,–,–,< 10,100 to 1000,–,< 10,+++ (+++ indicate a value of at least 100),–
"CNC(=O)c1ccc(N2CCC(N3CCC(c4nc5ccc(C(F)(F)F)cc5c(=O)[nH]4)C3)CC2)cn1 (single isomer, unassigned) [Compound 161a]",–,–,–,100 to 1000,> 10000,–,100 to 1000,− (− indicates a value of less than 10),–
CNC(=O)c1ccc(N2CCC(N3CCC(c4cc5cccc(C(F)(F)F)c5c(=O)[nH]4)C3)CC2)cn1 (racemic) [Compound 135rac],–,–,–,< 10,10 to 100,–,< 10,+ (+ indicates a value of 10 to less than 50),–
"CNC(=O)c1ccc(N2CCC(N3CCC(c4nc5cccc(F)c5c(=O)[nH]4)C3)CC2)cn1 (single isomer, unassigned) [Compound 101a]",–,–,–,10 to 100,100 to 1000,–,10 to 100,+ (+ indicates a value of 10 to less than 50),–
"CNC(=O)c1ccc(N2CCC(N3CCC(c4cc5ccccc5c(=O)[nH]4)C3)CC2)cn1 (single isomer, unassigned) [Compound 91a]",–,–,–,< 10,100 to 1000,–,< 10,+++ (+++ indicate a value of at least 100),–
CNC(=O)c1ccc(N2CCC(N3CC4(c5nc6ccncc6c(=O)[nH]5)CC3C4)CC2)c(F)n1 [Compound 305],< 10,> 10000,–,–,–,–,–,+++ (+++ indicate a value of at least 100),< 10
"N#Cc1ccc(N2CCC(N3CCC(c4nc5ccccc5c(=O)[nH]4)C3)CC2)nc1 (single isomer, unassigned) [Compound 55b]",–,–,–,10 to 100,100 to 1000,–,10 to 100,− (− indicates a value of less than 10),–
CNC(=O)c1ccc(N2CCC(N3CC4CC(c5nc6ccccc6c(=O)[nH]5)(C4)C3)CC2)cn1 [Compound 168],–,–,–,< 10,> 10000,< 10,–,+++ (+++ indicate a value of at least 100),–
"CNC(=O)c1ccc(N2CCC(N3CCC(c4nc5sc6c(c5c(=O)[nH]4)CCC6)C3)CC2)cn1 (single isomer, unassigned) [Compound 189a]",–,–,–,10 to 100,100 to 1000,–,10 to 100,− (− indicates a value of less than 10),–
"NC(=O)c1ccc(N2CCC(N3CCCC(c4nc5ccccc5c(=O)[nH]4)C3)CC2)cn1 (single isomer, unassigned) [Compound 109b]",–,–,–,10 to 100,1000 to 10000,–,100 to 1000,+ (+ indicates a value of 10 to less than 50),–
"CNC(=O)c1ccc(N2CCC(N3CC4(c5nc6ccccc6c(=O)[nH]5)CCC3C4)CC2)cn1 (single isomer, unassigned) [Compound 245b]",10 to 100,> 10000,10 to 100,–,–,–,–,+++ (+++ indicate a value of at least 100),–
"CNC(=O)c1ccc(N2CCC(N3CCCC(F)(c4nc5ccccc5c(=O)[nH]4)C3)CC2)cn1 (single isomer, unassigned) [Compound 71a]",–,–,–,1000 to 10000,> 10000,–,1000 to 10000,− (− indicates a value of less than 10),–
CCc1ccc(C2CCN(C3CCN(c4ccc(C(N)=O)nc4)CC3)C2)[nH]c1=O (racemic) [Compound 166rac],–,–,–,< 10,1000 to 10000,–,< 10,+++ (+++ indicate a value of at least 100),–

# Now from value to molecule, other results behind:
"IC50 [1, 4] [nM]",Kd ([2]; probe displacement HTRF) [nM],"Kd [3, 5] [nM]","IC50 [1, 6] [nM]",Kd ([2]; PARP2 probe displacement HTRF) [nM],"Kd [3, 7] [nM]","Kd [3, 8] [nM]",Compound,Selectivity ([3]; probe displacement HTRF),"Kd ([3]; PARP1 HTRF, probe displacement HTRF) [nM]"
10 to 100,100 to 1000,10 to 100,–,–,–,–,CS(=O)(=O)NC(=O)c1ccc(N2CCC(N3CCC(c4cc5ccccc5c(=O)[nH]4)C3)CC2)cn1 (racemic) [Compound 414rac],++ (++ indicates a value of 50 to less than 100),–
< 10,> 10000,< 10,–,–,–,–,"CCc1ccc(C2CCN(C3CCN(c4ccc(C(=O)NC)nc4Cl)CC3)C2)[nH]c1=O (single isomer, unassigned) [Compound 239a]",+++ (+++ indicate a value of at least 100),–
–,–,–,10 to 100,> 10000,–,10 to 100,"CNC(=O)c1ccc(N2CCC(N3CCCC(F)(c4nc5ccccc5c(=O)[nH]4)C3)CC2)cn1 (single isomer, unassigned) [Compound 71b]",+++ (+++ indicate a value of at least 100),–
–,–,–,< 10,100 to 1000,< 10,–,CNC(=O)c1ccc(N2CC(N3CCC(Cc4nc5ccccc5c(=O)[nH]4)CC3)C2)cn1 [Compound 48],+++ (+++ indicate a value of at least 100),–
–,–,–,10 to 100,> 10000,–,10 to 100,"CNC(=O)c1ccc(N2CCC(N3CCC(c4cc5ncccc5c(=O)[nH]4)C3)CC2)cn1 (single isomer, unassigned) [Compound 218a]",+++ (+++ indicate a value of at least 100),–
10 to 100,1000 to 10000,100 to 1000,–,–,–,–,"CS(=O)(=O)Nc1ccc(N2CCC(N3CCC(c4nc5ccccc5c(=O)[nH]4)C3)CC2)cn1 (single isomer, unassigned) [Compound 291a]",+ (+ indicates a value of 10 to less than 50),–
–,–,–,100 to 1000,1000 to 10000,–,100 to 1000,"CNC(=O)c1ccc(OCCN2CCC(c3nc4ccccc4c(=O)[nH]3)C2)cn1 (single isomer, unassigned) [Compound 62b]",− (− indicates a value of less than 10),–
100 to 1000,1000 to 10000,100 to 1000,–,–,–,–,"CNC(=O)c1cc(C)c(N2CCC(N3CCC(c4nc5ccccc5c(=O)[nH]4)C3)CC2)c(C)n1 (single isomer, unassigned) [Compound 224b]",− (− indicates a value of less than 10),–
